Results reported in the supplement of paper PMC10307832.

What was measured:
Assay in all cases: relative viability (nuclei count vs DMSO), 5 days (fraction); higher = more cells survive
[1] = tested on: ChaGo-K-1
Method in brief: (§1)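 After 5 days of treatment, lung cancer cells in 1536-well plates were fixed and stained in a single step (final 0.05% Triton X-100, 1% formaldehyde, 1 ug/ml Hoechst) and their nuclei counted on 4× images. Treatment had been applied by pin tool the day after seeding as one drug alone or as a fixed anchor-drug dose with five library-drug doses (not always all listed) in √10 steps. Relative viability is the nuclei count of treated wells divided by that of vehicle wells, and values are medians of duplicate plates.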

[2] = tested on: NCI-H2126
Method in brief: as §1

[3] = tested on: NCI-H2347
Method in brief: as §1

[4] = tested on: NCI-H2170
Method in brief: as §1

[5] = tested on: NCI-H1793
Method in brief: as §1

[6] = tested on: LOU-NH91
Method in brief: as §1

[7] = tested on: LCLC-103H
Method in brief: as §1

[8] = tested on: HOP-62
Method in brief: as §1

[9] = tested on: NCI-H520
Method in brief: as §1

[10] = tested on: NCI-H1437
Method in brief: as §1

[11] = tested on: NCI-H441
Method in brief: as §1

[12] = tested on: NCI-H2023
Method in brief: as §1

[13] = tested on: NCI-H650
Method in brief: as §1

[14] = tested on: NCI-H23
Method in brief: as §1

[15] = tested on: NCI-H647
Method in brief: as §1

[16] = tested on: NCI-H727
Method in brief: as §1

[17] = tested on: SW 1573
Method in brief: as §1

[18] = tested on: NCI-H460
Method in brief: as §1

[19] = tested on: EMC-BAC-2
Method in brief: as §1

[20] = tested on: NCI-H2405
Method in brief: as §1

[21] = tested on: EPLC-272H
Method in brief: as §1

[22] = tested on: NCI-H2009
Method in brief: as §1

`O=C(O)CCCCC(CCSCc1ccccc1)SCc1ccccc1` (centres undefined) [CPI-613] + COc1cc2c(Oc3ccc(NC(=O)C4(C(=O)Nc5ccc(F)cc5)CC4)cc3F)ccnc2cc1OCCCN1CCOCC1 [Foretinib] (partner 0.25 µM) gave a relative viability ([1]; first compound 5 µM) of 0.818, a relative viability ([1]; first compound 15.81 µM) of 0.901 and a relative viability ([1]; first compound 50 µM) of 0.929. The relative viability ([1]; first compound 158.11 µM) was 0.245, the relative viability ([1]; first compound 500 µM) was 0.105 and the relative viability ([2]; first compound 5 µM) was 1.12. For the same molecule, the relative viability ([2]; first compound 15.81 µM) was 1.09, the relative viability ([2]; first compound 50 µM) was 1.09 and the relative viability ([2]; first compound 158.11 µM) was 1.14. For the same molecule, the relative viability ([2]; first compound 500 µM) was 1.18, the relative viability ([3]; first compound 5 µM) was 0.7 and the relative viability ([3]; first compound 15.81 µM) was 1.05. The relative viability ([3]; first compound 50 µM) was 1.09, the relative viability ([3]; first compound 500 µM) was 1.05 and the relative viability ([4]; first compound 5 µM) was 0.767. The relative viability ([4]; first compound 15.81 µM) was 0.906, the relative viability ([4]; first compound 50 µM) was 0.929 and the relative viability ([4]; first compound 158.11 µM) was 0.795. The relative viability ([4]; first compound 500 µM) was 0.139, the relative viability ([5]; first compound 5 µM) was 0.608 and the relative viability ([5]; first compound 15.81 µM) was 0.618. For the same molecule, the relative viability ([5]; first compound 50 µM) was 0.827, the relative viability ([5]; first compound 158.11 µM) was 0.385 and the relative viability ([5]; first compound 500 µM) was 0.0145. The relative viability ([6]; first compound 5 µM) was 0.863, the relative viability ([6]; first compound 15.81 µM) was 0.902 and the relative viability ([6]; first compound 50 µM) was 0.949. It also gave a relative viability ([6]; first compound 158.11 µM) of 0.963, a relative viability ([6]; first compound 500 µM) of 0.916 and a relative viability ([7]; first compound 5 µM) of 0.744. It also gave a relative viability ([7]; first compound 15.81 µM) of 0.757, a relative viability ([7]; first compound 50 µM) of 0.805 and a relative viability ([7]; first compound 158.11 µM) of 0.174. It also gave a relative viability ([7]; first compound 500 µM) of 0.243, a relative viability ([8]; first compound 5 µM) of 1.06 and a relative viability ([8]; first compound 15.81 µM) of 1.04. For the same molecule, the relative viability ([8]; first compound 50 µM) was 1.11, the relative viability ([8]; first compound 158.11 µM) was 0.39 and the relative viability ([8]; first compound 500 µM) was 0.231. The relative viability ([9]; first compound 5 µM) was 0.755, the relative viability ([9]; first compound 15.81 µM) was 0.784 and the relative viability ([9]; first compound 50 µM) was 0.623. The relative viability ([9]; first compound 158.11 µM) was 0.523, the relative viability ([9]; first compound 500 µM) was 0.142 and the relative viability ([10]; first compound 5 µM) was 1.22. It also gave a relative viability ([10]; first compound 15.81 µM) of 1.23, a relative viability ([10]; first compound 50 µM) of 1.29 and a relative viability ([10]; first compound 158.11 µM) of 0.426. It also gave a relative viability ([10]; first compound 500 µM) of 0.0461, a relative viability ([11]; first compound 5 µM) of 0.962 and a relative viability ([11]; first compound 15.81 µM) of 0.948. It also gave a relative viability ([11]; first compound 50 µM) of 0.937, a relative viability ([11]; first compound 158.11 µM) of 0.271 and a relative viability ([11]; first compound 500 µM) of 0.076. For the same molecule, the relative viability ([12]; first compound 5 µM) was 0.704, the relative viability ([12]; first compound 15.81 µM) was 0.719 and the relative viability ([12]; first compound 50 µM) was 0.875. For the same molecule, the relative viability ([12]; first compound 158.11 µM) was 0.0718, the relative viability ([12]; first compound 500 µM) was 0.0092 and the relative viability ([13]; first compound 5 µM) was 0.947. It also gave a relative viability ([13]; first compound 15.81 µM) of 1, a relative viability ([13]; first compound 50 µM) of 0.979 and a relative viability ([13]; first compound 158.11 µM) of 0.836. For the same molecule, the relative viability ([13]; first compound 500 µM) was 0.806, the relative viability ([14]; first compound 5 µM) was 1.03 and the relative viability ([14]; first compound 15.81 µM) was 0.917. For the same molecule, the relative viability ([14]; first compound 50 µM) was 0.985, the relative viability ([14]; first compound 158.11 µM) was 0.402 and the relative viability ([14]; first compound 500 µM) was 0.0153. It also gave a relative viability ([15]; first compound 5 µM) of 0.992, a relative viability ([15]; first compound 15.81 µM) of 1.2 and a relative viability ([15]; first compound 50 µM) of 1.15. It also gave a relative viability ([15]; first compound 158.11 µM) of 0.34, a relative viability ([15]; first compound 500 µM) of 0.0186 and a relative viability ([16]; first compound 5 µM) of 0.854. The relative viability ([16]; first compound 15.81 µM) was 1.39, the relative viability ([16]; first compound 50 µM) was 0.865 and the relative viability ([16]; first compound 158.11 µM) was 0.572. It also gave a relative viability ([16]; first compound 500 µM) of 0.47, a relative viability ([17]; first compound 5 µM) of 0.943 and a relative viability ([17]; first compound 15.81 µM) of 0.807. The relative viability ([17]; first compound 50 µM) was 0.844, the relative viability ([17]; first compound 158.11 µM) was 0.88 and the relative viability ([17]; first compound 500 µM) was 0.871. The relative viability ([18]; first compound 5 µM) was 0.979, the relative viability ([18]; first compound 15.81 µM) was 0.978 and the relative viability ([18]; first compound 50 µM) was 1.01. For the same molecule, the relative viability ([18]; first compound 158.11 µM) was 0.479, the relative viability ([18]; first compound 500 µM) was 0.0276 and the relative viability ([19]; first compound 5 µM) was 1.01. For the same molecule, the relative viability ([19]; first compound 15.81 µM) was 0.993, the relative viability ([19]; first compound 50 µM) was 0.967 and the relative viability ([19]; first compound 158.11 µM) was 0.367. For the same molecule, the relative viability ([19]; first compound 500 µM) was 0.0284, the relative viability ([20]; first compound 5 µM) was 1.08 and the relative viability ([20]; first compound 15.81 µM) was 1.03. The relative viability ([20]; first compound 50 µM) was 0.995, the relative viability ([20]; first compound 158.11 µM) was 0.93 and the relative viability ([20]; first compound 500 µM) was 0.876. It also gave a relative viability ([21]; first compound 5 µM) of 0.613, a relative viability ([21]; first compound 15.81 µM) of 0.597 and a relative viability ([21]; first compound 50 µM) of 0.69. For the same molecule, the relative viability ([21]; first compound 158.11 µM) was 0.158, the relative viability ([21]; first compound 500 µM) was 0.0081 and the relative viability ([22]; first compound 5 µM) was 1.25. The relative viability ([22]; first compound 15.81 µM) was 1.16, the relative viability ([22]; first compound 50 µM) was 1.12 and the relative viability ([22]; first compound 158.11 µM) was 0.221. For the same molecule, the relative viability ([22]; first compound 500 µM) was 0.019.
